Experimental findings from ChEMBL document CHEMBL5442379, “ASAP - SARS-CoV-2 nsp3 macrodomain single point” (2024) are described below.

For the assay, the target named is Replicase polyprotein 1ab (Severe acute respiratory syndrome coronavirus 2) (UniProt P0DTD1).

Molecules are shown by their SMILES.

Description: Functional biochemical assay to identify treatments for viral infectious disease that targets SARS-COV-2 nsp3 macrodomain, whereby the mechanism of action displaces an ADP-Ribose modified peptide from the binding site. Utilizing a time-resolved fluorescence method to measure binding by reading the emitted fluorescence intensity in two wavelengths.

`CCC(CC)(C(=O)Nc1nc(C)nc2[nH]ccc12)C(=O)OC(C)(C)C`: the inhibition by setting is: (Concentration 50.0 uM, Number of replicates 2.0, Standard deviation 5.081 %) -9.46%; (Concentration 100.0 uM, Number of replicates 2.0, Standard deviation 0.41 %) -4.71%.
With `O=C(CNc1ncnc2[nH]ccc12)N1CCc2ccccc21`, the inhibition (Concentration 50.0 uM, Number of replicates 2.0, Standard deviation 7.793 %) worked out at 1.19%.
Consider `COc1cc(CNc2cnc3[nH]ncc3c2)ccc1Cl`, for which the inhibition (Concentration 50.0 uM, Number of replicates 2.0, Standard deviation 4.023 %) was -2.79%.
Consider `O=C(CCN(Cc1cccc(Cl)c1)C(=O)c1c[nH]c(=O)cn1)N1CCNCC1`, for which the inhibition reads like this: (Concentration 49.75 uM, Number of replicates 2.0, Standard deviation 1.237 %) -2.71%; (Concentration 99.5 uM, Number of replicates 2.0, Standard deviation 0.012 %) 0.98%.
Regarding `O=S1(=O)CCC[C@@H](CNc2ncnc3n[nH]cc23)C1`, for the setting “Concentration 50.0 uM, Number of replicates 2.0, Standard deviation 5.989 %”, the inhibition was 4.59%.
As for `Cc1cc(NCc2cnc3c(c2)NC(=O)CO3)cnc1C`, the inhibition (Concentration 50.0 uM, Number of replicates 2.0, Standard deviation 8.489 %) came to 4.53%.
As to `O=C(Nc1ccccc1)Nc1ccc(C(=O)N[C@H]2CC[C@H](CO)CC2)cc1`, the inhibition runs as follows: (Concentration 49.75 uM, Number of replicates 2.0, Standard deviation 1.388 %) -0.639%; (Concentration 99.5 uM, Number of replicates 2.0, Standard deviation 3.79 %) -2.58%.
Take `O=C(NC[C@@H]1CCCCN1)c1cnn2ccc(C3CCN(C(=O)c4ccccc4)CC3)cc12`: the inhibition (Concentration 49.75 uM, Number of replicates 2.0, Standard deviation 3.98 %) is -5.92% and the inhibition (Concentration 99.5 uM, Number of replicates 2.0, Standard deviation 0.917 %) is -2.57%.
Regarding `O=C(Cc1ccon1)Nc1ncnc2[nH]cnc12`, the inhibition (Concentration 50.0 uM, Number of replicates 2.0, Standard deviation 0.023 %) was -1.61%.
For `CC(C)(c1noc(-c2ncnc3[nH]ccc23)n1)S(C)(=O)=O`, under “Concentration 50.0 uM, Number of replicates 2.0, Standard deviation 1.059 %”, the inhibition is -0.756%.
For `O=C(Nc1ccccc1)Nc1ccc(C(=O)Nc2nnc(C(F)(F)F)[nH]2)cc1`, the inhibition is -3.2% (Concentration 49.75 uM, Number of replicates 2.0, Standard deviation 1.534 %) and -1.46% (Concentration 99.5 uM, Number of replicates 2.0, Standard deviation 0.592 %).
Take `Nc1ncc(C(=O)N(CCC(=O)N2CCNCC2)Cc2cccc(Cl)c2)cn1`: the inhibition reads like this: (Concentration 49.75 uM, Number of replicates 2.0, Standard deviation 3.901 %) -2.76%; (Concentration 99.5 uM, Number of replicates 2.0, Standard deviation 0.039 %) -1.73%.
With `COc1cc(Nc2ncnc3[nH]ccc23)ccc1NC(C)=O`, the inhibition (Concentration 50.0 uM, Number of replicates 2.0, Standard deviation 12.002 %) was -7.76%.
On to `CN(c1ncnc2[nH]ccc12)[C@H]1CCN(S(C)(=O)=O)C1`, for which the inhibition (Concentration 50.0 uM, Number of replicates 2.0, Standard deviation 5.861 %) is -0.371%.
Turning to `Cc1cccc(C)c1-n1nnnc1CSc1ncnc2[nH]cnc12`, the inhibition (Concentration 50.0 uM, Number of replicates 2.0, Standard deviation 4.544 %) stood at 6.63%.
Regarding `Cn1cc([C@@H](Nc2ncnc3[nH]ccc23)C2CCC2)cn1`, the inhibition is, setting by setting: (Concentration 49.75 uM, Number of replicates 2.0, Standard deviation 3.794 %) 78.1%; (Concentration 99.5 uM, Number of replicates 2.0, Standard deviation 1.201 %) 91%.
For `CC(C)n1cc(S(=O)(=O)Nc2cnc3[nH]ncc3c2)cn1`, for the setting “Concentration 50.0 uM, Number of replicates 4.0, Standard deviation 3.956 %”, the inhibition is 1.55%.
`Cc1nn(C)c(C)c1[C@H]1COCCN1c1ncnc2[nH]ccc12`: the inhibition is -0.137% (Concentration 49.75 uM, Number of replicates 2.0, Standard deviation 4.821 %) and -0.128% (Concentration 99.5 uM, Number of replicates 2.0, Standard deviation 1.988 %).
`Cc1ccc(C(=O)N(CCC(=O)N2CCNCC2)Cc2cccc(Cl)c2)[nH]1`: the inhibition runs as follows: (Concentration 49.75 uM, Number of replicates 2.0, Standard deviation 5.038 %) -5.9%; (Concentration 99.5 uM, Number of replicates 2.0, Standard deviation 2.609 %) -3.94%.
As to `FC(F)(F)c1nc(NC[C@H]2CCCO2)c2nc[nH]c2n1`, where the note is “Concentration 50.0 uM, Number of replicates 2.0, Standard deviation 2.867 %”, the inhibition came out at 2.5%.
`Oc1ccccc1CNc1ncnc2cccnc12`: the inhibition is, setting by setting: (Concentration 49.75 uM, Number of replicates 2.0, Standard deviation 0.51 %) -1.84%; (Concentration 99.5 uM, Number of replicates 2.0, Standard deviation 1.128 %) -0.535%.
As for `CN1CCO[C@H](CNC(=O)c2ccc(NC(=O)Nc3ccccc3)cc2)C1`, the inhibition (Concentration 49.75 uM, Number of replicates 2.0, Standard deviation 5.309 %) is -0.616% and the inhibition (Concentration 99.5 uM, Number of replicates 2.0, Standard deviation 6.496 %) amounted to 3.27%.
Consider `CC(C)[C@@H](CO)[C@@H](Nc1ncnc2[nH]ccc12)C(C)C`, for which the inhibition was found to be 6.65% (Concentration 49.75 uM, Number of replicates 2.0, Standard deviation 2.34 %) and 13.1% (Concentration 99.5 uM, Number of replicates 2.0, Standard deviation 2.712 %).
Turning to `Cn1ncc2c(NCc3ncccc3O)ncnc21`, the inhibition (Concentration 50.0 uM, Number of replicates 2.0, Standard deviation 16.275 %) stood at 3.89%.
Take `Cc1nn(C)c(NCc2nc(CO)cs2)c1C#N`: where the note is “Concentration 50.0 uM, Number of replicates 2.0, Standard deviation 1.694 %”, the inhibition is 2.1%.
For the compound `CC(C)c1c[nH]nc1NC(=O)c1ccc(NC(=O)Nc2ccccc2)cc1`, the inhibition is 6.99% (Concentration 49.75 uM, Number of replicates 2.0, Standard deviation 3.059 %) and 8.5% (Concentration 99.5 uM, Number of replicates 2.0, Standard deviation 3.555 %).
With `Cn1nc(NC(=O)c2cc3nccn3c(=O)[nH]2)c2nccnc21`, the inhibition (Concentration 50.0 uM, Number of replicates 2.0, Standard deviation 4.143 %) was -1.91%.
As to `NC(=O)[C@@H]1CCN(C(=O)c2cnc3[nH]c(=O)[nH]c(=O)c3c2)C1`, the inhibition (Concentration 50.0 uM, Number of replicates 2.0, Standard deviation 2.086 %) is -6.32%.
On to `Cc1ccc(C(=O)N2CCC(c3ccn4ncc(C(=O)N5CCCCC5)c4c3)CC2)c(=O)[nH]1`, for which the inhibition was determined as 3.31% (Concentration 49.75 uM, Number of replicates 2.0, Standard deviation 1.294 %) and 3.66% (Concentration 99.5 uM, Number of replicates 2.0, Standard deviation 2.376 %).
As for `Cc1cccc(OCCNc2ncnc3nc[nH]c23)c1`, the inhibition (Concentration 50.0 uM, Number of replicates 2.0, Standard deviation 4.697 %) was 3.91%.
For the compound `Cc1ncc(NCc2ncn(C)c2Cl)cc1C(N)=O`, the inhibition (Concentration 50.0 uM, Number of replicates 2.0, Standard deviation 1.923 %) was determined as 2.41%.
Regarding `CCN1CCN(C(=O)c2cnn3ccc(C4CCN(C(=O)c5ccccc5)CC4)cc23)CC1=O`, the inhibition was -8.63% (Concentration 49.75 uM, Number of replicates 2.0, Standard deviation 2.605 %) and -3.46% (Concentration 99.5 uM, Number of replicates 2.0, Standard deviation 4.496 %).
